Laboratory results reported in patent publication US20210347709A1, “RADIOFLUORINATED GPC3-BINDING PEPTIDES FOR PET IMAGING OF HEPATOCELLULAR CARCINOMA” (University of Southern California, priority 2020, published 2021).
Like-named read-outs stand apart in the source and are kept apart here.

Legend:
[1] = In vitro stability in PBS and mouse serum; assay type: in vitro ADME; details: PBS at room temperature and mouse serum at 37° C., 2 h incubation, HPLC
Method: In Vitro Stability. The stability of Al[^18F]F-GP2076 or Al[^18F]F-GP2633 was evaluated in PBS and mouse serum. Briefly, 5.55 MBq of Al[^18F]F-GP2076 or Al[^18F]F-GP2633 was incubated with 0.5 ml of PBS at room temperature or mouse serum at 37° C. with gentle shaking. The stability test was carried out at 2 h after the incubation. For the PBS study, an aliquot of the solution was taken, and the radiochemical purity was determined by analytical HPLC. For the mouse serum study, after the addition of TFA, the mixture was passed through a 0.2-μm filter. An aliquot of the soluble fraction was taken, and the radiochemical purity was examined by analytical HPLC.

[2] = In vivo metabolic stability in HepG2 tumor-bearing mice; details: 1 h after intravenous injection
Method: In Vivo Metabolic Stability. HepG2 tumor-bearing mice (n=3/group) were intravenously injected with 5.55 MBq of Al[^18F]F-GP2076 or Al[^18F]F-GP2633. At 1 h after the injection, the mice were euthanized, and the HepG2 tumor, blood, liver, kidneys, and urine samples were collected. Briefly, the blood sample was immediately centrifuged for 5 min at 12,000 rpm. The HepG2 tumor, liver, and kidneys were homogenized and then centrifuged for 5 min at 12,000 rpm. The supernatant from each sample was passed through an ultrafiltration tube (Millipore, USA) and then centrifuged for 10 min at 12,000 rpm. The urine sample was diluted with 100 μl of PBS. The filtrate from each sample was injected into analytic HPLC. The HPLC eluents were collected with a fraction collector (one fraction/30 sec), and the radioactivity of each fraction was measured by gamma counting.

[3] = MicroPET/CT imaging and biodistribution, McA-RH7777 tumor model; assay type: in vivo, nude mice; details: both sexes, BALB/c nude, mouse, iv, 5.55 MBq, total radioactivity; for tissue to tissue ratio at 0.5 h / tissue to tissue ratio at 1 h / tissue to tissue ratio at 2 h: McA-RH7777 (GPC3−) tumor bearing mice; for tissue to tissue ratio at 0.5 h / tissue uptake at 0.5 h: 30 min; for tissue to tissue ratio at 1 h / tissue uptake at 1 h: 60 min; for tissue uptake at 0.5 h / tissue uptake at 1 h / tissue uptake at 2 h: McA-RH7777 (GPC3−) tumor model, PET; for tissue uptake at 2 h / tissue to tissue ratio at 2 h: 120 min
Method: (§1) MicroPET/CT Imaging and Biodistribution. MicroPET/CT scans were carried out using a Siemens Inveon PET/CT scanner (Siemens, Germany). Tumor-bearing mice (n=3/group) were intravenously injected with 5.55 MBq of Al[^18F]F-GP2076 or Al[^18F]F-GP2633 under isoflurane anesthesia. A ten-minute static PET scan for each animal was acquired at 30, 60, and 120 min after the injection. 3-Dimensional ordered subset expectation maximization (3D-OSEM) algorithm was used for the PET reconstruction, and CT was applied for attenuation correction. Detailed procedures for the microPET/CT imaging and biodistribution are provided in ESM.
(§2) All animal experiments were conducted according to the guideline of the Nanfang Hospital Animal Ethics Committee at the Southern Medical University. Male or female BALB/c nude mice (about 4-6 weeks old) were obtained from the Laboratory Animal Center at Southern Medical University. The HepG2 and McA-RH7777 HCC xenografts were established by subcutaneous injection of 1×10^6 tumor cells into the left shoulder of nude mice. The animals were used for in vivo studies when the tumors reached a size of 0.5-1 cm in diameter (4-6 weeks after inoculation).
(§3) Inveon Research Workplace (IRW) 3.0 software (Siemens, Germany) was used to measure the regions of interest (ROIs) determined by superimposing the ellipsoid volume of interest (VOI) on the target tissues. The radioactivity concentrations were measured by the mean pixel intensity within each VOI and converted to dose/ml using a calibration constant. Assuming the tissue density of 1 g/ml, the ROI was then converted to dose per gram and normalized as the percent injected dose per gram (% ID/g). Tumor-to-nontarget uptake ratios, including tumor-to-muscle (T/M), tumor-to-liver (T/L), and tumor-to-kidneys (T/K) ratios, were calculated by dividing the radioactivity uptake in tumor by that in the corresponding normal tissue or organ.

[4] = system: GPC3-negative McA-RH7777 tumor; experiment: as above; assay type: in vivo, nude mice; details: for Tumor-to-muscle (T/M) uptake ratio: McA-RH7777 (GPC3−) tumor bearing mice; for Kidneys uptake / Liver uptake / Tumor uptake: McA-RH7777 (GPC3−) tumor model, PET; for Tumor uptake: decay-corrected
Method: as §1, §2, §3

[5] = McA-RH7777 tumor / muscle, read-out: Tumor-to-muscle (T/M) uptake ratio
[6] = intestine, read-out: Intestinal uptake
[7] = decay-corrected, read-out: Tumor uptake
[8] = kidneys, read-out: Kidneys uptake
[9] = muscle, read-out: Muscle uptake
[10] = tumor / kidneys, read-out: Tumor-to-kidneys (T/K) uptake ratio
[11] = tumor / liver, read-out: Tumor-to-liver (T/L) uptake ratio

## CC(C)C[C@H](NC(=O)[C@H](CCCNC(=N)N)NC(=O)[C@H](CC(N)=O)NC(=O)[C@H](CC(=O)O)NC(=O)[C@H](CCCNC(=N)N)NC(=O)CNC(=O)CNC(=O)CNC(=S)Nc1ccc(CC2CN(CC(=O)O)CCN(CC(=O)O)CCN2CC(=O)O)cc1)C(=O)N[C@@H](CC(N)=O)C(=O)N[C@H](C(=O)NCC(=O)NCC(=O)N[C@H](C(=O)N[C@@H](Cc1ccc(O)cc1)C(=O)N[C@@H](Cc1ccccc1)C(=O)N[C@@H](CC(C)C)C(=O)N[C@H](C(=O)N[C@H](C(=O)N[C@@H](CCCNC(=N)N)C(=O)N[C@@H](CCC(N)=O)C(=O)O)[C@@H](C)O)[C@@H](C)O)[C@@H](C)O)C(C)C (single isomer, unassigned) [Al[^18F]F-GP2633]
[1]
  percentage of intact radiotracer (in vitro stability): > 98%
[2]
  percentage of parent F-18 labeled peptide in HepG2 tumor: 93.01±2.98%
  percentage of parent F-18 labeled peptide in blood: 93.57±1.38%
  percentage of parent F-18 labeled peptide in kidneys: 7.70±2.56%
  percentage of parent F-18 labeled peptide in liver: 92.95±2.77%
  percentage of parent F-18 labeled peptide in urine: No parent
[3]; [5]
  tissue to tissue ratio at 0.5 h: 3.87 ± 1.97
  tissue to tissue ratio at 1 h: 6.2 ± 2.67
[3]; bone, read-out: Bone uptake
  tissue uptake at 0.5 h: 1.04 %ID/g
  tissue uptake at 1 h: 0.8 %ID/g
  tissue uptake at 2 h: 0.56 %ID/g
[3]; brain, read-out: Brain uptake
  tissue uptake at 0.5 h: 0.78 %ID/g
  tissue uptake at 1 h: 0.31 %ID/g
  tissue uptake at 2 h: 0.22 %ID/g
[3]; heart, read-out: Heart uptake
  tissue uptake at 0.5 h: 1.4 %ID/g
  tissue uptake at 1 h: 1 %ID/g
  tissue uptake at 2 h: 0.47 %ID/g
[3]; [6]
  tissue uptake at 0.5 h: 1.43 %ID/g
  tissue uptake at 1 h: 1.03 %ID/g
  tissue uptake at 2 h: 0.65 %ID/g
[3]; [7]
  tissue uptake at 0.5 h: 1.75 %ID/g
  tissue uptake at 1 h: 1.64 %ID/g
  tissue uptake at 2 h: 0.66 %ID/g
[3]; [8]
  tissue uptake at 0.5 h: 37.5 %ID/g
  tissue uptake at 1 h: 35.4 %ID/g
  tissue uptake at 2 h: 25.7 %ID/g
[3]; liver, read-out: Liver uptake
  tissue uptake at 0.5 h: 1.52 %ID/g
  tissue uptake at 1 h: 1.33 %ID/g
  tissue uptake at 2 h: 0.88 %ID/g
[3]; lung, read-out: Lung uptake
  tissue uptake at 0.5 h: 0.93 %ID/g
  tissue uptake at 1 h: 0.74 %ID/g
  tissue uptake at 2 h: 0.49 %ID/g
[3]; [9]
  tissue uptake at 0.5 h: 0.53 %ID/g
  tissue uptake at 1 h: 0.31 %ID/g
  tissue uptake at 2 h: 0.2 %ID/g
[3]; [10]
  tissue to tissue ratio at 0.5 h: 0.05 ± 0.004
  tissue to tissue ratio at 1 h: 0.05 ± 0.002
  tissue to tissue ratio at 2 h: 0.03 ± 0.004
[3]; [11]
  tissue to tissue ratio at 0.5 h: 1.15 ± 0.09
  tissue to tissue ratio at 1 h: 1.23 ± 0.05
  tissue to tissue ratio at 2 h: 0.78 ± 0.16
[3]; tumor / muscle, read-out: Tumor-to-muscle (T/M) uptake ratio
  tissue to tissue ratio at 2 h: 5.5 ± 3.65
[4]; 30 min
  Tumor-to-muscle (T/M) uptake ratio: 3.87±1.97
  Kidneys uptake: 37.47 ± 2.57 % ID/g
  Liver uptake: 1.52 ± 0.11 % ID/g
  Tumor uptake: 1.75±0.05 % ID/g
[4]; 60 min
  Tumor-to-muscle (T/M) uptake ratio: 6.20±2.67
  Kidneys uptake: 35.40 ± 0.92 % ID/g
  Liver uptake: 1.33 ± 0.06 % ID/g
  Tumor uptake: 1.64±0.03 % ID/g
[4]; 120 min
  Kidneys uptake: 25.70 ± 3.35 % ID/g
  Liver uptake: 0.88 ± 0.20 % ID/g
  Tumor uptake: 0.66±0.06 % ID/g
